Here are results for 3 molecules from patent US6624150B2, “Method of treating gastrointestinal tract disease with purinergic receptor agonists” (Inspire Pharmaceuticals, Inc., priority 1999, dated 2003).

One assay relates to T84 cells. Description: Intracellular calcium mobilization (Fluo-3 AM, FLIPR) in T84 cells. Format: cell-based. To be noted: T84 human colonic epithelial cell line; FIG. 5. An excerpt:
In addition, the pharmaceutical utility of P2Y agonist compounds of this invention are indicated by the intracellular calcium mobilization assay for P2Y activity. In this assay, cultured cells are stimulated with the increasing concentrations of P2Y receptor agonists. Intracellular calcium levels are monitored by measuring the changes in fluorescence intensity of a calcium-sensitive dye using the FLIPR (Molecular Devices Corp., Sunnyvale, Calif.) or equivalent instrumentation. A conventional technique is used to detect intracellular calcium mobilization induced by P2Y receptor agonists. The technique is familiar to those well versed in the art. Cells are seeded in 96-well plates and used for calcium mobilization assays. On the day of the assay, the growth medium is aspirated and replaced with a solution of Fluo-3 AM (2.5 μM final concentration) in an assay buffer consisting of (mM): KCI (10.0), NaCl (118), CaCl2(2.5), MgCl2 (1.0), HEPES (20), glucose (10), pH 7.4. Probenecid (Sigma Chemical Co.) is added to the dye load and dye wash medium at a working concentration of 2.5mM to increase dye retention in the cells. After a 60 minute incubation with Fluo-3 AM at 25° C., cells are washed free of dye (Columbus Plate Washer, TECAN U.S., Inc., Research Triangle Park, N.C.) and are stimulated with increasing concentrations of P2Y receptor agonists. Intracellular calcium levels are simultaneously monitored in each well by measuring the changes in fluorescence intensity using the FLIPR (Molecular Devices Corp., Sunnyvale, Calif.). T84 cells, a human colonic epithelial cell line, were subjected to the calcium mobilization assay described above. […] The activation of intracellular calcium mobilization by ATP and UTP in T84 and HT-29 cells indicate the pharmaceutical utility of P2Y receptor agonists in the gastrointestinal tract.

The test system of assay [1] is HT-29 cells. Description: Intracellular calcium mobilization (Fluo-3 AM, FLIPR) in HT-29 cells. Type of assay: cell-based. The conditions noted are these: human colonic HT-29 cells; FIG. 6. An excerpt: In addition, the pharmaceutical utility of P2Y agonist compounds of this invention are indicated by the intracellular calcium mobilization assay for P2Y activity. In this assay, cultured cells are stimulated with the increasing concentrations of P2Y receptor agonists. Intracellular calcium levels are monitored by measuring the changes in fluorescence intensity of a calcium-sensitive dye using the FLIPR (Molecular Devices Corp., Sunnyvale, Calif.) or equivalent instrumentation. A conventional technique is used to detect intracellular calcium mobilization induced by P2Y receptor agonists. The technique is familiar to those well versed in the art. Cells are seeded in 96-well plates and used for calcium mobilization assays. On the day of the assay, the growth medium is aspirated and replaced with a solution of Fluo-3 AM (2.5 μM final concentration) in an assay buffer consisting of (mM): KCI (10.0), NaCl (118), CaCl2(2.5), MgCl2 (1.0), HEPES (20), glucose (10), pH 7.4. Probenecid (Sigma Chemical Co.) is added to the dye load and dye wash medium at a working concentration of 2.5mM to increase dye retention in the cells. […] Intracellular calcium levels are simultaneously monitored in each well by measuring the changes in fluorescence intensity using the FLIPR (Molecular Devices Corp., Sunnyvale, Calif.). […]

Assay [2] concerns HT-29 cells. The conditions noted are these: Otero et al. Mol Cell Biochem 2000; cited from earlier work.
For a further assay, the system named is Goblet cells. To be noted: Goblet cells in vitro; Lethem et al. 1993; cited from earlier work.

Molecules are shown by their SMILES.

Regarding `CSc1nc(N)c2ncn([C@@H]3O[C@H](COP(=O)(O)OP(=O)(O)O)[C@@H](O)[C@H]3O)c2n1` [2-methylthioADP], in the assay with T84 cells, the calcium mobilization result is recorded as “did not simulate calcium mobilization”.

In the case of `Nc1ncnc2c1ncn2[C@@H]1O[C@H](COP(=O)(O)OP(=O)(O)OP(=O)(O)O)[C@@H](O)[C@H]1O` [ATP, 5′-adenosine triphosphate], the “calcium mobilization (P2Y response)” value in the assay on HT-29 cells [1] is “robust P2Y response”. Moreover, the calcium mobilization entry in the assay on T84 cells was “stimulate calcium mobilization”.

`O=c1ccn([C@@H]2O[C@H](COP(=O)(O)OP(=O)(O)OP(=O)(O)O)[C@@H](O)[C@H]2O)c(=O)[nH]1` [UTP, uridine 5′-triphosphate]: the “calcium mobilization (P2Y response)” value in the assay on HT-29 cells [1] is “robust P2Y response”. For the same molecule, the figures for the calcium mobilization entry in the assay on HT-29 cells [2] and in the assay on T84 cells were “stimulated calcium mobilization” and “stimulate calcium mobilization”, respectively. The “rate and total amount of mucin secretion” value with Goblet cells was “increase both the rate and total amount of mucin secretion”.
